This is an account of results in EPA's ToxValDB 9.5 (doi:10.2903/j.efsa.2009.296r).

In brackets after ≈: the same amount, converted by molar mass.

For one data set, the system named is Oryctolagus sp. The conditions noted are these: developmental; development.
The subject of the next data set is Coturnix coturnix. The conditions noted are these: oral.
Another data set has as its system Oncorhynchus mykiss. The conditions noted are these: chronic/long-term; duration: 28 days.
In another data set the test system is Apis mellifera. The conditions noted are these: acute, duration: 48 hours, mortality.
The test system of a further data set is Anas platyrhynchos. The conditions noted are these: oral.
For data set [1] the following is noted: reproductive; oral; feed; reproduction.
Another data set deals with Salmo trutta ssp. fario. To be noted: acute; duration: 96 hours; mortality.
The test system of another data set is Mus musculus. The conditions noted are these: acute; oral; mortality.
The subject of the next data set is Daphnia magna. To be noted: chronic/long-term; duration: 21 days.

By NOAEL is commonly meant the highest dose or exposure tested at which no adverse effect was seen. With `O=C1C2CC=CCC2C(=O)N1SC(Cl)(Cl)Cl` (stereo not drawn) [Captan], the LD50 in the data set on Rattus norvegicus (acute, oral, mortality) is over 2000 mg/kg; in the data set on Coturnix coturnix (acute, mortality), over 2000 mg/kg; in the data set on Apis mellifera (oral, unspecified), over 100 µg/piece; in the data set with Anas platyrhynchos (acute, unspecified, mortality), over 2000 mg/kg; in the data set on Mus musculus it was over 2000 mg/kg. For the same compound, the no-observed-adverse-effect level (NOAEL) in the data set on Rattus norvegicus (developmental, development) stood at 10 mg/kg-day; in the data set on Oryctolagus sp., 30 mg/kg-day; in [1], 100 mg/kg-day. For the same compound, the LC50 was over 800 mg/kg-day in the data set on Coturnix coturnix (acute, diet, mortality); over 200 µg/piece with Apis mellifera (dermal); over 1040 mg/kg-day in the data set with Anas platyrhynchos (short-term, feed, mortality); 0.098 µg/mL (≈ 0.326 µM) in the data set on Salmo trutta ssp. fario; over 519 mg/kg in the data set on Tagia sp. (acute, duration: 14 days, mortality). Further, the NOEC in the data set on Coturnix coturnix (reproduction developmental, no effects) is 83.2 mg/kg-day; with Oncorhynchus mykiss it was 0.199 mg/L; with Anas platyrhynchos (reproductive, unspecified, no effects), 74.4 mg/kg-day; in the data set on Daphnia magna, 0.56 mg/L; in the data set on Tagia sp. (chronic/long-term, duration: 8 weeks, reproduction) it was 11.6 mg/kg.
